25 compounds from patent US20250101041A1, “POSITIVE ALLOSTERIC MODULATORS OF THE MUSCARINIC ACETYLCHOLINE RECEPTOR M4” (Vanderbilt University, priority 2022, published 2025) can be followed below.

In this assay the target is T1, human mAChR M4 (Homo sapiens, UniProt P08173).
T1 construct: expressed in transfected cells; host or cells: CHO-K1 (American Type Culture Collection), stably expressing hM4 and Gqi5
T1 sequence (P08173 1-479): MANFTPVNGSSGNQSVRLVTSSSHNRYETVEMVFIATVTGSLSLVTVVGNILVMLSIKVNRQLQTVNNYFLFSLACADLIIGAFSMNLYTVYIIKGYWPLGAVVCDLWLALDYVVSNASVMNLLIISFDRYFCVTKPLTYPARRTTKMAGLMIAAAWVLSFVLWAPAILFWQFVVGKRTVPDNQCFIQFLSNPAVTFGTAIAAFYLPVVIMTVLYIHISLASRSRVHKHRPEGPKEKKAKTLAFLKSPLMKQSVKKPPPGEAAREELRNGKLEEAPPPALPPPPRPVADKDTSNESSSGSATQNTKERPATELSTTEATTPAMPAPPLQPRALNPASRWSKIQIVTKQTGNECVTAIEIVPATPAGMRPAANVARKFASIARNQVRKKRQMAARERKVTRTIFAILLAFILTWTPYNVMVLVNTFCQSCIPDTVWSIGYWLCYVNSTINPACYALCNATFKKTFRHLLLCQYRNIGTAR
Put plainly: mAChR M4 cell-based functional assay: calcium mobilization (Fluo-4, FDSS), potentiation of EC20 acetylcholine response in hM4-Gqi5 CHO-K1 cells. Particulars: human M4; for Emax at 30 µM: CHO-K1, % ACh maximum at 30 μM; for EC50: potentiation of EC20 acetylcholine response, calcium mobilization. A digest of the protocol:
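CHO-K1 cells stably co-expressing human M4 and chimeric Gqi5, loaded with Fluo-4 AM (50 min, 37 °C). Compounds in 11-point 1:3 series added first; EC20 acetylcholine added at 144 s and again at 230 s. Calcium read on FDSS at 1 Hz; EC50 and Emax from four-parameter logistic fit of potentiated EC20 response.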

Regarding `Cc1cc2nccc(=O)n2nc1N1CCc2ncc(NS(C)(=O)=O)cc2C1` [Compound 2-117, N-(6-(8-methyl-4-oxo-4H-pyrimido[1,2-b]pyridazin-7-yl)-5,6,7,8-tetrahydro-1,6-naphthyridin-3-yl)methanesulfonamide], the Emax at 30 µM came to 83% and the EC50 worked out at 2760 nM.
For the compound `Cc1cc2nccc(=O)n2nc1N1CCc2ncc(NS(=O)(=O)C3CC3)cc2C1` [Compound 2-118, N-(6-(8-methyl-4-oxo-4H-pyrimido[1,2-b]pyridazin-7-yl)-5,6,7,8-tetrahydro-1,6-naphthyridin-3-yl)cyclopropanesulfonamide], the Emax at 30 µM was 48% and the EC50 turned out to be 3050 nM.
For `Cc1nc(S(=O)(=O)Nc2cnc3c(c2)CN(c2nn4c(=O)ccnc4cc2C)CC3)cs1` [Compound 2-119, 2-methyl-N-(6-(8-methyl-4-oxo-4H-pyrimido[1,2-b]pyridazin-7-yl)-5,6,7,8-tetrahydro-1,6-naphthyridin-3-yl)thiazole-4-sulfonamide], the Emax at 30 µM is 31%.
For `Cc1cc2nccc(=O)n2nc1N1CCc2ncc(NC(=O)C3CC(F)(F)C3)cc2C1` [Compound 2-120, 3,3-difluoro-N-(6-(8-methyl-4-oxo-4H-pyrimido[1,2-b]pyridazin-7-yl)-5,6,7,8-tetrahydro-1,6-naphthyridin-3-yl)cyclobutane-1-carboxamide], the Emax at 30 µM was 71%.
In the case of `Cc1cc2nccc(=O)n2nc1N1CCc2ncc(NC(=O)C3(C)CCC3)cc2C1` [Compound 2-121, 1-methyl-N-(6-(8-methyl-4-oxo-4H-pyrimido[1,2-b]pyridazin-7-yl)-5,6,7,8-tetrahydro-1,6-naphthyridin-3-yl)cyclobutane-1-carboxamide], the Emax at 30 µM came out at 66%.
Regarding `Cc1cc2nccc(=O)n2nc1N1CCc2ncc(NC(=O)c3ncco3)cc2C1` [Compound 2-122, N-(6-(8-methyl-4-oxo-4H-pyrimido[1,2-b]pyridazin-7-yl)-5,6,7,8-tetrahydro-1,6-naphthyridin-3-yl)oxazole-2-carboxamide], the Emax at 30 µM stood at 44% and the 50% effective concentration (EC50) amounted to 1880 nM.
On the same counts, the results for `Cc1cc2nccc(=O)n2nc1N1CCc2ncc(Nc3ccnc(F)c3)cc2C1` [Compound 2-123, 7-(3-((2-fluoropyridin-4-yl)amino)-7,8-dihydro-1,6-naphthyridin-6(5H)-yl)-8-methyl-4H-pyrimido[1,2-b]pyridazin-4-one] are 92% and 16 nM.
On the same counts, the results for `Cc1ccncc1Nc1cnc2c(c1)CN(c1nn3c(=O)ccnc3cc1C)CC2` [Compound 2-124, 8-methyl-7-(3-((4-methylpyridin-3-yl)amino)-7,8-dihydro-1,6-naphthyridin-6(5H)-yl)-4H-pyrimido[1,2-b]pyridazin-4-one] are 87% and 163 nM.
As for `Cc1cc2nccc(=O)n2nc1N1CCc2ncc(Nc3ccc(C4CC4)nc3)cc2C1` [Compound 2-125, 7-(3-((6-cyclopropylpyridin-3-yl)amino)-7,8-dihydro-1,6-naphthyridin-6(5H)-yl)-8-methyl-4H-pyrimido[1,2-b]pyridazin-4-one], the Emax at 30 µM was 58%.
Consider `Cc1cc2nccc(=O)n2nc1N1CCc2ncc(Nc3ccc(Cl)nc3)cc2C1` [Compound 2-126, 7-(3-((6-chloropyridin-3-yl)amino)-7,8-dihydro-1,6-naphthyridin-6(5H)-yl)-8-methyl-4H-pyrimido[1,2-b]pyridazin-4-one], for which the Emax at 30 µM amounted to 79% and the EC50 came to 263 nM.
On the same counts, the results for `Cc1cc2nccc(=O)n2nc1N1CCc2ncc(Nc3cnccn3)cc2C1` [Compound 2-127, 8-methyl-7-(3-(pyrazin-2-ylamino)-7,8-dihydro-1,6-naphthyridin-6(5H)-yl)-4H-pyrimido[1,2-b]pyridazin-4-one] are 64% and 2540 nM.
On the same counts, the results for `Cc1cc2nccc(=O)n2nc1N1CCc2ncc(Nc3cncc(F)c3)cc2C1` [Compound 2-128, 7-(3-((5-fluoropyridin-3-yl)amino)-7,8-dihydro-1,6-naphthyridin-6(5H)-yl)-8-methyl-4H-pyrimido[1,2-b]pyridazin-4-one] are 82% and 90 nM.
On the same counts, the results for `Cc1ncc(CNc2cnc3c(c2)CN(c2nn4c(=O)ccnc4cc2C)CC3)o1` [Compound 2-129, 8-methyl-7-(3-(((2-methyloxazol-5-yl)methyl)amino)-7,8-dihydro-1,6-naphthyridin-6(5H)-yl)-4H-pyrimido[1,2-b]pyridazin-4-one] are 105% and 686 nM.
`Cc1cc2nccc(=O)n2nc1N1CCc2ncc(NCc3cscn3)cc2C1` [Compound 2-130, 8-methyl-7-(3-((thiazol-4-ylmethyl)amino)-7,8-dihydro-1,6-naphthyridin-6(5H)-yl)-4H-pyrimido[1,2-b]pyridazin-4-one]: the Emax at 30 µM is 87% and the EC50 was 508 nM.
On the same counts, the results for `Cc1cc2nccc(=O)n2nc1N1CCc2ncc(NCc3cncn3C)cc2C1` [Compound 2-131, 8-methyl-7-(3-(((1-methyl-1H-imidazol-5-yl)methyl)amino)-7,8-dihydro-1,6-naphthyridin-6(5H)-yl)-4H-pyrimido[1,2-b]pyridazin-4-one] are 73% and 2790 nM.
For `Cc1cc(Nc2cnc3c(c2)CN(c2nn4c(=O)ccnc4cc2C)CC3)cnc1Cl` [Compound 2-132, 7-(3-((6-chloro-5-methylpyridin-3-yl)amino)-7,8-dihydro-1,6-naphthyridin-6(5H)-yl)-8-methyl-4H-pyrimido[1,2-b]pyridazin-4-one], the Emax at 30 µM was 93% and the EC50 amounted to 587 nM.
On the same counts, the results for `Cc1cncc(Nc2cnc3c(c2)CN(c2nn4c(=O)ccnc4cc2C)CC3)c1` [Compound 2-133, 8-methyl-7-(3-((5-methylpyridin-3-yl)amino)-7,8-dihydro-1,6-naphthyridin-6(5H)-yl)-4H-pyrimido[1,2-b]pyridazin-4-one] are 96% and 184 nM.
On the same counts, the results for `COc1ccc(Nc2cnc3c(c2)CN(c2nn4c(=O)ccnc4cc2C)CC3)cn1` [Compound 2-134, 7-(3-((6-methoxypyridin-3-yl)amino)-7,8-dihydro-1,6-naphthyridin-6(5H)-yl)-8-methyl-4H-pyrimido[1,2-b]pyridazin-4-one] are 90% and 290 nM.
Take `Cc1cc2nccc(=O)n2nc1N1CCc2ncc(Nc3cnccc3Cl)cc2C1` [Compound 2-135, 7-(3-((4-chloropyridin-3-yl)amino)-7,8-dihydro-1,6-naphthyridin-6(5H)-yl)-8-methyl-4H-pyrimido[1,2-b]pyridazin-4-one]: the Emax at 30 µM is 96% and the EC50 was 112 nM.
On the same counts, the results for `Cc1cc2nccc(=O)n2nc1N1CCc2ncc(Nc3ccnnc3)cc2C1` [Compound 2-136, 8-methyl-7-(3-(pyridazin-4-ylamino)-7,8-dihydro-1,6-naphthyridin-6(5H)-yl)-4H-pyrimido[1,2-b]pyridazin-4-one] are 101% and 308 nM.
Take `COc1cncc(Nc2cnc3c(c2)CN(c2nn4c(=O)ccnc4cc2C)CC3)c1` [Compound 2-137, 7-(3-((5-methoxypyridin-3-yl)amino)-7,8-dihydro-1,6-naphthyridin-6(5H)-yl)-8-methyl-4H-pyrimido[1,2-b]pyridazin-4-one]: the Emax at 30 µM is 98% and the EC50 was found to be 324 nM.
On the same counts, the results for `Cc1cc2nccc(=O)n2nc1N1CCc2ncc(Nc3cncc(C(F)(F)F)c3)cc2C1` [Compound 2-138, 8-methyl-7-(3-((5-(trifluoromethyl)pyridin-3-yl)amino)-7,8-dihydro-1,6-naphthyridin-6(5H)-yl)-4H-pyrimido[1,2-b]pyridazin-4-one] are 87% and 747 nM.
As for `Cc1cc2nccc(=O)n2nc1N1CCc2ncc(Nc3cncnc3C)cc2C1` [Compound 2-139, 8-methyl-7-(3-((4-methylpyrimidin-5-yl)amino)-7,8-dihydro-1,6-naphthyridin-6(5H)-yl)-4H-pyrimido[1,2-b]pyridazin-4-one], the Emax at 30 µM was 97% and the EC50 was 1820 nM.
On the same counts, the results for `COc1ccnc(Nc2cnc3c(c2)CN(c2nn4c(=O)ccnc4cc2C)CC3)n1` [Compound 2-140, 7-(3-((4-methoxypyrimidin-2-yl)amino)-7,8-dihydro-1,6-naphthyridin-6(5H)-yl)-8-methyl-4H-pyrimido[1,2-b]pyridazin-4-one] are 56% and 985 nM.
On the same counts, the results for `COc1cc(Nc2cnc3c(c2)CN(c2nn4c(=O)ccnc4cc2C)CC3)ccn1` [Compound 2-141, 7-(3-((2-methoxypyridin-4-yl)amino)-7,8-dihydro-1,6-naphthyridin-6(5H)-yl)-8-methyl-4H-pyrimido[1,2-b]pyridazin-4-one] are 100% and 21 nM.
